According to ChEMBL document CHEMBL2429820, “Synthesis and anticonvulsant activity evaluation of 7-alkoxy-2,4-dihydro-1H-benzo[b][1,2,4]triazolo[4,3-d][1,4]thiazin-1-ones in various murine experimental seizure models” (Med Chem Res, 2013):
Calls of active or inactive are those of the source. The calls are words filed in the database; no cut-off is given here.

How the values were obtained:
Mus musculus [1] = experiment: Anticonvulsant activity in KunMing mouse assessed as protection against maximal electroshock-induced seizure at 30 mg/kg, ip after 0.5 hrs; assay type: functional, organism-based; parameters: dose 30 mg/kg
Mus musculus [2] = experiment: Anticonvulsant activity in KunMing mouse assessed as protection against maximal electroshock-induced seizure at 100 mg/kg, ip after 0.5 hrs; assay type: functional, organism-based; parameters: dose 100 mg/kg
Mus musculus [3] = experiment: Anticonvulsant activity in KunMing mouse assessed as protection against maximal electroshock-induced seizure at 15 mg/kg, ip after 0.5 hrs; assay type: functional, organism-based; parameters: dose 15 mg/kg
Mus musculus [4] = experiment: Anticonvulsant activity in ip dosed KunMing mouse assessed as protection against maximal electroshock-induced seizure after 0.5 hrs; assay type: functional
[5] = Neurotoxicity in ip dosed KunMing mouse assessed as inability of animal to maintain equilibrium on rod for at least 1 min; assay type: toxicity, organism-based; conditions: in vivo
Mus musculus [6] = experiment: Protective index, ratio of TD50 for ip dosed KunMing mouse to ED50 for ip dosed KunMing mouse; assay type: functional
Mus musculus [7] = experiment: Anticonvulsant activity in KunMing mouse assessed as protection against maximal electroshock-induced seizure at 7.5 mg/kg, ip after 0.5 hrs; assay type: functional, organism-based; parameters: dose 7.5 mg/kg
Mus musculus [8] = experiment: Anticonvulsant activity against 3-mercaptopropionic acid-induced seizure in KunMing mouse assessed as clonic seizure level at 30 mg/kg, ip administered 30 mins before 3-mercaptopropionic acid challenge measured after 30 mins; assay type: functional; conditions: route intraperitoneal
Mus musculus [9] = experiment: Anticonvulsant activity against 3-mercaptopropionic acid-induced seizure in KunMing mouse assessed as tonic seizure level at 30 mg/kg, ip administered 30 mins before 3-mercaptopropionic acid challenge measured after 30 mins; assay type: functional; conditions: route intraperitoneal
Mus musculus [10] = experiment: Anticonvulsant activity against pentylenetetrazole-induced seizure in KunMing mouse assessed as clonic seizure level at 30 mg/kg, ip administered 30 mins before pentylenetetrazole challenge measured after 30 mins; assay type: functional; conditions: route intraperitoneal
Mus musculus [11] = experiment: Anticonvulsant activity against pentylenetetrazole-induced seizure in KunMing mouse assessed as tonic seizure level at 30 mg/kg, ip administered 30 mins before pentylenetetrazole challenge measured after 30 mins; assay type: functional; conditions: route intraperitoneal
Mus musculus [12] = experiment: Anticonvulsant activity against bicuculline-induced seizure in KunMing mouse assessed as clonic seizure level at 30 mg/kg, ip administered 30 mins before bicuculline challenge measured after 30 mins; assay type: functional; conditions: route intraperitoneal
Mus musculus [13] = experiment: Anticonvulsant activity against pentylenetetrazole-induced seizure in KunMing mouse assessed as lethality at 30 mg/kg, ip administered 30 mins before pentylenetetrazole challenge measured after 30 mins; assay type: functional; conditions: route intraperitoneal
Mus musculus [14] = experiment: Anticonvulsant activity against bicuculline-induced seizure in KunMing mouse assessed as lethality at 30 mg/kg, ip administered 30 mins before bicuculline challenge measured after 30 mins; assay type: functional; conditions: route intraperitoneal
Mus musculus [15] = experiment: Anticonvulsant activity against bicuculline-induced seizure in KunMing mouse assessed as tonic seizure level at 30 mg/kg, ip administered 30 mins before bicuculline challenge measured after 30 mins; assay type: functional; conditions: route intraperitoneal
Mus musculus [16] = experiment: Anticonvulsant activity against 3-mercaptopropionic acid-induced seizure in KunMing mouse assessed as lethality at 30 mg/kg, ip administered 30 mins before 3-mercaptopropionic acid challenge measured after 30 mins; assay type: functional; conditions: route intraperitoneal

Compound	Activity (Mus musculus [1])	Activity (Mus musculus [2])	ED50 (Mus musculus [4])	TD50 at 1 min [5]	PI (Mus musculus [6])	also measured
CCOc1ccc2c(c1)SCc1n[nH]c(=O)n1-2	inactive	Active				
CCCCOc1ccc2c(c1)SCc1n[nH]c(=O)n1-2	Active	Active	7.9 mg/kg	118 mg/kg	14.9	Activity (Mus musculus [3]): Active
CCCCCCCCCCCCOc1ccc2c(c1)SCc1n[nH]c(=O)n1-2		inactive				
CCCCCCOc1ccc2c(c1)CCC(=O)N2			24 mg/kg		2.4	
CCCOc1ccc2c(c1)SCc1n[nH]c(=O)n1-2	Active	Active	12.2 mg/kg	84.9 mg/kg	7	
O=c1[nH]nc2n1-c1ccc(OCc3cccc(Cl)c3)cc1SC2		Active				Activity (Mus musculus [3]): inactive
CCCCCOc1ccc2c(c1)SCC(=O)N2			34.1 mg/kg	306 mg/kg	8.9	
O=c1[nH]nc2n1-c1ccc(OCc3ccccc3F)cc1SC2		Active				Activity (Mus musculus [7]): inactive
NC(=O)N1c2ccccc2C=Cc2ccccc21 [CARBAMAZEPINE]			11.8 mg/kg		6.4	Activity (Mus musculus [8]): 100%; Activity (Mus musculus [9]): 0%; Activity (Mus musculus [10]): 100%; Activity (Mus musculus [11]): 0%; Activity (Mus musculus [12]): 100%; Activity (Mus musculus [13]): 10%; Activity (Mus musculus [14]): 60%; Activity (Mus musculus [15]): 0%
Cc1ccc(COc2ccc3c(c2)SCc2n[nH]c(=O)n2-3)cc1	Active	Active				Activity (Mus musculus [7]): inactive
O=c1[nH]nc2n1-c1ccc(OCc3cccc(F)c3)cc1SC2		Active				Activity (Mus musculus [7]): inactive
O=c1[nH]nc2n1-c1ccc(OCc3ccccc3)cc1SC2		Active	12.2 mg/kg	94.7 mg/kg	7.8	
CCCCCOc1ccc2c(c1)SCc1n[nH]c(=O)n1-2	Active	Active	7.1 mg/kg	81.8 mg/kg	11.5	Activity (Mus musculus [3]): Active
O=c1[nH]nc2n1-c1ccc(OCc3cccc(C(F)(F)F)c3)cc1SC2	inactive					
O=c1[nH]nc2n1-c1ccc(OCc3ccc(Cl)cc3)cc1SC2						Activity (Mus musculus [3]): inactive
O=c1[nH]nc2n1-c1ccc(OCc3ccc(F)cc3)cc1SC2	Active	Active	9.2 mg/kg	141 mg/kg	15.4	Activity (Mus musculus [8]): 100%; Activity (Mus musculus [9]): 0%; Activity (Mus musculus [10]): 100%; Activity (Mus musculus [11]): 10%; Activity (Mus musculus [12]): 90%; Activity (Mus musculus [13]): 80%; Activity (Mus musculus [16]): 60%; Activity (Mus musculus [14]): 30%; Activity (Mus musculus [15]): 10%
CCCCCCCOc1ccc2c(c1)SCc1n[nH]c(=O)n1-2						Activity (Mus musculus [7]): inactive
O=c1[nH]nc2n1-c1ccc(OCc3c(Cl)cccc3Cl)cc1SC2						Activity (Mus musculus [3]): inactive
CCCCCCOc1ccc2c(c1)SCc1n[nH]c(=O)n1-2	Active	Active	7.9 mg/kg	89.6 mg/kg	11.3	Activity (Mus musculus [3]): Active
CCCCCCCCOc1ccc2c(c1)SCc1n[nH]c(=O)n1-2		inactive				
N#Cc1ccccc1COc1ccc2c(c1)SCc1n[nH]c(=O)n1-2		inactive				
O=c1[nH]nc2n1-c1ccc(OCc3ccccc3Cl)cc1SC2		inactive				
CCCCCCCCCCCCCCOc1ccc2c(c1)SCc1n[nH]c(=O)n1-2		inactive				
